# Where two headings read alike, the source gives them in different places.
# Tests used:
# [1] = tested on: HCV genotype 1b (Con 1 isolate) subgenomic replicon; assay: microbe, parasite or virus in culture; type: cell-based, Hepatitis C virus; settings: for improvement in anti-HCV EC50 over compound 2: relative to lead compound 2
# Description: (§1) Cells. HCV genotype 1b (Con 1 isolate) subgenomic replicon cell line with luciferase reporter (Huh-luc/neo-ET) was kindly provided by Ralf Bartenschlager from the University of Heidelberg (37). Huh-luc/neo-ET cells were cultured in Dulbecco's modified Eagle medium (DMEM , supplemented with 10% fetal bovine serum (FBS), 1 mM nonessential amino acids, and 250 μg/ml of G418 (Invitrogen). Genotype 2a (JFH-I isolate) subgenomic replicon cells YSGR-JFH were cultured in DMEM containing 10 To fetal calf serum, 1 mM nonessential amino acids and 400 μg/ml G418 (31). An additional genotype 1b (Conl) replicon cell line (4291BBix) was cultured in similar media but with 3 μg/ml blasticidin (22).
# (§2) Determination of antiviral activities. Ff-luciferase reporter activity was used to monitor the replication of HCV replicons in Huhluc/neo-ET cells free from G418. Replicon cells were seeded at the density of 5×10^3 cells per well in 96-well plates. The following day, replicon cells were incubated in duplicates with DMSO or serially diluted tetraphenylporphyrin (TPP) analogues at 37″C. 72 hrs after co-incubation, cells were lysed with ice-cold passive lysis reagent after PBS wash, and the luciferase activity was measured with the luciferase assay kit (Promega) and Tecan FARCyte luminometer (GE Healthcare) following the manufacturers' descriptions. The relative light units (RLU) were adjusted as percentage readings of the compound-free controls and the 50% effective concentration (EC50) was determined from dose-effect curve by nonlinear regression analysis using Origin 6.1 (OriginLab Software). TPP analogues were also screened in vitro against HIV-I IIIB and HBV as previously described (26,41). Briefly 1×10^3 MT-2 cells per well were exposed in triplets to 0.1TC1D50/cell (50% of the tissue culture infectious dose) of HIV-1 IIIB and cultured in the presence of compounds. The EC50 values were estimated by MTT-based colorimetric quantitation of viral CPE after 5 days. Anti-HBV activities were evaluated in 2.2.15 cells by means of Southern DNA hybridization.
# HBV = assay: Anti-HBV activity in 2.2.15 cells by Southern DNA hybridization; type: cell-based; settings: read-out: Antiviral Activity EC50 HBV
# Description: as §2
# HIV-1 IIIB = assay: Anti-HIV activity in MT-2 cells, MTT quantitation of viral CPE; type: cell-based; settings: read-out: Antiviral Activity EC50 HIV-1 IIIB
# Description: as §2
# [2] = Cytotoxicity in uninfected MT-2 cells; type: cell-based; settings: human; uninfected MT-2 cells, 5 days
# Description: (§3) Determination of cytotoxicity and mitochondrial DNA toxicity. Exponentially growing Huh-7 cells were seeded at a density of 1×10^4 cells per well in a 24-well plate and incubated with TPP analogues for 3 days. Cells were fixed and stained with 0.5% methylene blue in 50% ethanol followed by extensive washing. After the plates were air dried, cells were solubilized in 1% sarkosyl and cell growth was determined from the extent of absorption by spectrophotometric measurements at 595 nm (Biotek Instruments). For compounds whose dark color interfered with 595-nm reading, cytotoxicity was measured by the CellTiter-Glo luminesecent cell viability assay following manufacturer's description (Promega). Cytotoxicity in MT-2 cells was determined from colorimetric quantitation of uninfected MT-2 cells after 5 days of coincubation.
# [3] = Cytotoxicity in Huh-7 cells (methylene blue or CellTiter-Glo); type: cell-based; settings: human; Huh-7 cells, 3 days
# Description: as §3
# [4] = tested on: mitochondrial DNA content of CEM cells; assay: Mitochondrial DNA toxicity, slot blot of CEM cell lysates; type: cell-based; settings: read-out: Mitochondrial DNA Toxicity IC50 CEM
# Description: Quantitation of mitochondrial DNA content was performed as previously published (18). Briefly, CEM cell lysates were spotted onto Hybond paper using the Miliford II slot blot apparatus (Schleicher & Schuell). MTDNA was detected with mtDNA-specific probe and then reprobed with Alu probe for internal control. The autoradiographic bands were quantified on scanning densitometer (Molecular Dynamics).
# [5] = tested on: HCV genotype 1b (Con1) replicon; assay: Effect of serum concentration on anti-HCV activity, luciferase assay in Huh-luc/neo-ET cells; type: cell-based, Hepatitis C virus; settings: for Fold Change in EC50 5% FBS: EC50 at 5% FBS as one fold; for EC50: 72 hrs; for Fold Change in EC50 10% FBS / Fold Change in EC50 20% FBS / Fold Change in EC50 40% FBS: relative to EC50 at 5% FBS
# Description: Cells were harvested after 72 hrs for luciferase activity assays.
# Huh-luc/neo-ET cells were incubated with compound 1, 4 or 6 for 72 hrs and the anti-HCV activity was evaluated by measuring the reduction of reporter luciferase activities.
# [6] = tested on: HCV genotype 2a (JFH-1) replicon; assay: HCV RNA quantification by qRT-PCR in YSGR-JFH cells; type: cell-based, Hepatitis C virus; settings: Hepatitis C virus, 72 h, read-out: antiviral EC50 against YSGR-JFH replicon cells
# Description: as §1
# Activity of compound 6 against genotype 2a (JFH-I) replicons. In parallel to Huh-luc/neo-ET cells, 1×10^5 YSGR-JFH cells per well were incubated with DMSO control, compound 6, or recombinant human IFNα-2a (Pestka Biomedical Laboratories) in 6-well plates. Cells were harvested after 72 hrs of co-incubation and HCV RNAs were quantitated by qRT-PCR and normalized as described above.
# cytochrome c = cytochrome c (Equus caballus, UniProt P00004); settings: read-out: Kd, binding to cyt c; cited from earlier work
# Sequence of cytochrome c (P00004 2-105 limits assumed): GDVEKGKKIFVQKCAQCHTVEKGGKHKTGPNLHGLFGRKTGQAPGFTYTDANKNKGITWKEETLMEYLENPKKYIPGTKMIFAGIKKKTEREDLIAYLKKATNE
# [7] = Cytotoxicity in CEM cells; settings: human
# MT-2 cells = assay: Cytotoxicity in uninfected MT-2 cells; type: cell-based
# Description: as §3
# Huh-7 cells = assay: Cytotoxicity in Huh-7 cells (methylene blue or CellTiter-Glo); type: cell-based
# Description: as §3
# CEM cells [8] = assay: Cytotoxicity in CEM cells; settings: read-out: Cytotoxicity CC50 CEM
# CEM cells [9] = tested on: CEM cells
# [10] = Huh-luc/neo-ET, 72 hrs, luciferase, read-out: Antiviral Activity EC50 HCV
SMILES,"EC50 [1, 10] [µM]",EC50 (HBV) [µM],"EC50 (HIV-1 IIIB; MT-2 cells, 5 days) [µM]",IC50 ([4]; CEM cells) [µM],CC50 (MT-2 cells) [µM],CC50 (Huh-7 cells) [µM],CC50 (CEM cells [9]) [µM],further results
"O=C(O)c1ccc(-c2c3nc(c(-c4ccc(C(=O)O)cc4)c4ccc([nH]4)c(-c4ccc(C(=O)O)cc4)c4nc(c(-c5ccc(C(=O)O)cc5)c5ccc2[nH]5)C=C4)C=C3)cc1 [Compound 1, Meso-Tetra(4-carboxyphenyl)porphine]",,,,,,,,"EC50 ([1]; Hepatitis C virus, Huh-luc/neo-ET, 72 hrs, luciferase, read-out: Antiviral Activity EC50 HCV): 0.243 ± 0.0359 µM; improvement in anti-HCV EC50 over compound 2 [1]: Over 7 fold; EC50 (HBV; Hepatitis B virus): > 10 µM; EC50 (HIV-1 IIIB; Human immunodeficiency virus 1, IIIB, MT2, 120 h): > 25 µM; CC50 at 5 days [2]: > 25 µM; CC50 at 3 days [3]: > 50 µM; IC50 ([4]; Homo sapiens, CCRF-CEM): > 50 µM; Fold Change in EC50 5% FBS [5]: 1.00; EC50 ([5]; Hepatitis C virus, Huh-luc/neo-ET, read-out: EC50 10% FBS, 10% FBS): 0.243 ± 0.036 µM; EC50 ([5]; Hepatitis C virus, Huh-luc/neo-ET, read-out: EC50 20% FBS, 20% FBS): 0.513 ± 0.069 µM; EC50 ([5]; Hepatitis C virus, Huh-luc/neo-ET, 5% FBS, read-out: EC50 5% FBS): 0.124 ± 0.008 µM; EC50 ([5]; Hepatitis C virus, Huh-luc/neo-ET, 40% FBS, read-out: EC50 40% FBS): 0.948 ± 0.089 µM; EC50 ([5]; Hepatitis C virus, Huh-luc/neo-ET, extrapolation of the plot of EC50 vs serum amount, read-out: EC50 0% FBS (Theoretical)): 0.0482 µM; Fold Change in EC50 10% FBS [5]: 1.95 ± 0.16; Fold Change in EC50 20% FBS [5]: 4.16 ± 0.82; Fold Change in EC50 40% FBS [5]: 7.62 ± 0.46; EC50 [6]: 1.9 µM; Kd (cytochrome c): 0.95 ± 0.25 µM; CC50 [7]: 34 µM"
O=C(O)CNC(=O)c1ccc(-c2c3nc(c(-c4ccc(C(=O)NCC(=O)O)cc4)c4ccc([nH]4)c(-c4ccc(C(=O)NCC(=O)O)cc4)c4nc(c(-c5ccc(C(=O)NCC(=O)O)cc5)c5ccc2[nH]5)C=C4)C=C3)cc1 [Compound 2],1.8 ± 0.7,> 10,> 25,15 ± 3.7,,,,"CC50 (MT-2 cells; uninfected MT-2 cells, 5 days, read-out: Cytotoxicity CC50 MT-2): 3.2 ± 1.13 µM; CC50 (Huh-7 cells; Huh-7 cells, 3 days, read-out: Cytotoxicity CC50 Huh-7): > 50 µM; CC50 (CEM cells [8]): 27 ± 15.1 µM"
O=C(O)c1cc(C(=O)O)cc(-c2c3nc(c(-c4cc(C(=O)O)cc(C(=O)O)c4)c4ccc([nH]4)c(-c4cc(C(=O)O)cc(C(=O)O)c4)c4nc(c(-c5cc(C(=O)O)cc(C(=O)O)c5)c5ccc2[nH]5)C=C4)C=C3)c1 [Compound 3],13.6 ± 1.1,7,> 100,25,22,> 50,> 50,
"O=C(O)c1ccc(-c2ccc(-c3c4nc(c(-c5ccc(-c6ccc(C(=O)O)cc6)cc5)c5ccc([nH]5)c(-c5ccc(-c6ccc(C(=O)O)cc6)cc5)c5nc(c(-c6ccc(-c7ccc(C(=O)O)cc7)cc6)c6ccc3[nH]6)C=C5)C=C4)cc2)cc1 [Compound 4, Tetracarboxybiphenylporphyrin]",0.877 ± 0.0289,> 10,> 25,6,> 25,32.2 ± 4.14,10,"EC50 ([5]; 5% FBS, read-out: EC50 5% FBS): 0.633 ± 0.176 µM; EC50 ([5]; 40% FBS, read-out: EC50 40% FBS): 1.48 ± 0.015 µM; Fold Change in EC50 5% FBS [5]: 1.00; EC50 ([5]; extrapolation of the plot of EC50 vs serum amount, read-out: EC50 0% FBS (Theoretical)): 0.38 µM; EC50 ([5]; read-out: EC50 10% FBS, 10% FBS): 0.877 ± 0.029 µM; EC50 ([5]; read-out: EC50 20% FBS, 20% FBS): 1.21 ± 0.056 µM; Fold Change in EC50 10% FBS [5]: 1.46 ± 0.42; Fold Change in EC50 20% FBS [5]: 2.01 ± 0.52; Fold Change in EC50 40% FBS [5]: 2.48 ± 0.74; Kd (cytochrome c): 17 ± 0.84 µM"
O=C(O)CNC(=O)c1ccc(-c2ccc(-c3c4nc(c(-c5ccc(-c6ccc(C(=O)NCC(=O)O)cc6)cc5)c5ccc([nH]5)c(-c5ccc(-c6ccc(C(=O)NCC(=O)O)cc6)cc5)c5nc(c(-c6ccc(-c7ccc(C(=O)NCC(=O)O)cc7)cc6)c6ccc3[nH]6)C=C5)C=C4)cc2)cc1 [Compound 5],0.148 ± 0.006,> 20,1.5 ± 0.436,> 50,13 ± 4.36,> 50,> 50,improvement in anti-HCV EC50 over compound 2 [1]: 12 fold
O=C(O)CNC(=O)c1cc(C(=O)NCC(=O)O)cc(-c2ccc(-c3c4nc(c(-c5ccc(-c6cc(C(=O)NCC(=O)O)cc(C(=O)NCC(=O)O)c6)cc5)c5ccc([nH]5)c(-c5ccc(-c6cc(C(=O)NCC(=O)O)cc(C(=O)NCC(=O)O)c6)cc5)c5nc(c(-c6ccc(-c7cc(C(=O)NCC(=O)O)cc(C(=O)NCC(=O)O)c7)cc6)c6ccc3[nH]6)C=C5)C=C4)cc2)c1 [Compound 7],> 12.5,> 10,1.05 ± 0.071,12.5,15 ± 4.24,12.5,> 50,
O=C(O)c1cccc(-c2ccc(-c3c4nc(c(-c5ccc(-c6cccc(C(=O)O)c6)cc5)c5ccc([nH]5)c(-c5ccc(-c6cccc(C(=O)O)c6)cc5)c5nc(c(-c6ccc(-c7cccc(C(=O)O)c7)cc6)c6ccc3[nH]6)C=C5)C=C4)cc2)c1 [Compound 9],0.764 ± 0.06,8,> 25,22,> 25,13 ± 0.7,50,
"C[N+](C)(C)c1ccc(-c2c3nc(c(-c4ccc([N+](C)(C)C)cc4)c4ccc([nH]4)c(-c4ccc([N+](C)(C)C)cc4)c4nc(c(-c5ccc([N+](C)(C)C)cc5)c5ccc2[nH]5)C=C4)C=C3)cc1 [TTMAPP, 5,10,I5,20-Tetrakis (4(trimethylammonio)-phenyl)-21H,23H-porphine, reference compound]",,,,,,,,"EC50 ([1]; HCV replicons in vitro, read-out: anti-HCV EC50): 3.58 µM"
